From US20120115869A1, “TETRAZOLE DERIVATIVES” (MERCK SERONO S.A., priority 2009, published 2012)

Experiments:
CRTH2 (DP2) = target: T1, CRTH2 (DP2) (Homo sapiens, UniProt Q9Y5Y4); assay: Radioligand binding Scintillation Proximity Assay ([3H]PGD2, hCRTH2-CHO cell membranes); details: 1.5 nM [3H]PGD2, hCRTH2-CHO cell membranes, SPA
T1 construct: host or cells: CHO cells
T1 sequence (Q9Y5Y4 1-395): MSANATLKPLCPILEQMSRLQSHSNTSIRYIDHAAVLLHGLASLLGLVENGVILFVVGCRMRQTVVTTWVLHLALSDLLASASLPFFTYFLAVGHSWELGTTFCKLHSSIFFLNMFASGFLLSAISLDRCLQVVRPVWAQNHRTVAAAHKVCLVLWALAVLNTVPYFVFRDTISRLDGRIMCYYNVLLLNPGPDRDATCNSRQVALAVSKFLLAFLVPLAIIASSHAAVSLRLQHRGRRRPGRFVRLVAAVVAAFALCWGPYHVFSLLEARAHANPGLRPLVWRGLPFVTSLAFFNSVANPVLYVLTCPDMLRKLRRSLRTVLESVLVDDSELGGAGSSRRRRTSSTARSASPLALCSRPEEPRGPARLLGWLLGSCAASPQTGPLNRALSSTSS
Outline: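 Membranes from CHO cells stably expressing human CRTH2, made by nitrogen cavitation and differential centrifugation. Compounds competed with [3H]PGD2 at 1% DMSO for 90 min with agitation at room temperature. Non-specific binding taken with 10 μM PGD2.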

CRTH2 [1] = target: T2, CRTH2 (Homo sapiens, UniProt Q9Y5Y4); assay: [35S]GTPγS binding assay on CHO-CRTH2 cell membranes; format: biochemical; details: for Emax: without addition of PGD2, 100% of Emax being the activity measured by the addition of 1 μM of PGD2
T2 construct: expressed in transfected cells; host or cells: CHO cells
T2 sequence (Q9Y5Y4 1-395): T1 sequence (Q9Y5Y4 1-395)
Procedure: Adherent CHO cells expressing hCRTH2 (Euroscreen, Belgium) were cultured in 225 cm^2 cell culture flasks (Corning, USA) in 30 ml of medium. After two rinses of phosphate buffered saline (PBS), cells were harvested in 10 ml of PBS containing 1 mM EDTA, centrifuged at 500×g for 5 min at 4° C. and frozen at −80° C. The pellet was re-suspended in 50 mM Tris-HCl, pH 7.4, 2 mM EDTA, 250 mM Sucrose, containing protease inhibitor cocktail tablets, (Complete EDTA-free, Roche, Germany) and incubated 30 min at 4° C. Cells were disrupted by nitrogen cavitation (Parr Instruments, USA) at 4° C. (800 p.s.i. for 30 min), and centrifuged at 500×g for 10 min at 4° C. Pellet containing nuclei and cellular debris was discarded and supernatant was centrifuged 60 min at 4° C. at 45000×g. Membrane pellet was re-suspended in storage buffer (10 mM HEPES/KOH pH 7.4, 1 mM EDTA, 250 mM sucrose, protease inhibitor cocktail tablets) using Dounce homogenization and frozen in liquid nitrogen, and stored at 80° C.
The [^35S]GTPγS assay measures the increase in guanine nucleotide exchange at G-proteins in cell membranes, resulting from agonist (PGD2) binding to CRTH2. […] Briefly, Compounds of Formula (I) are incubated in 96-well scintillating white polystyrene plates (Perkin Elmer, USA) in a final volume of 200 μl containing 20 mM HEPES/KOH pH 7.4, 3 mM MgCl2, 10 μg/ml Saponin, 5 μM GDP, 75 mM NaCl and 2% of dimethylsulphoxide (DMSO). […] After 60 min incubation at 30° C., reaction is stopped by centrifugation at 700×g, at 4° C. for 10 minutes and supernatant is removed. […] For IC50 determination, increasing concentrations of compounds are incubated in presence of a fixed concentration of PGD2 (EC80). For EC50 measurements, compounds are incubated without addition of PGD2. Basal [^35S]GTPγS activity is determined without addition of any ligands or compounds. 100% [^35S]GTPγS activity is measured by the addition of 1 μM of PGD2.

CRTH2 [2] = target: T2, CRTH2; assay: Cellular Dielectric Spectroscopy in CHO-CRTH2 cells; format: cell-based; details: for IC50: fixed concentration of PGD2 (EC80), read-out: IC50(μM) (CDS, antagonist); for EC50: agonist activity without PGD2, read-out: EC50(μM) (CDS, partial agonist); for Emax: agonist activity without PGD2, read-out: EMax (CDS, partial agonist)
Procedure: Cellular Dielectric Spectroscopy (CDS) is a label-free technology based on the measurement of complex impedance changes (delta Z or dZ). Impedance (Z) is related to the ratio of voltage to current as described by Ohm's law (Z=V/I). In order to measure the changes in impedance that occur in response to receptor stimulation, mammalian cells are seeded onto a custom 96-well microtiter plate that contains electrodes at the bottom of each well Key contributors to the impedance measurements are changes in cell-substrate adherence, changes in cell shape and volume, and changes in cell-cell interactions. These factors individually or collectively affect the flow of current, influencing the magnitude and characteristics of the signal measured. G-protein coupled receptors ligand-induced activity can be measured using this technology and specific G protein coupling can be identified. Activities of reference agonist and antagonist molecules of CRTH2 have been measured using this assay and similar results were obtained compared to different functional assays.
CHO—CRTH2 cells are cultured in HAM's F12 (Lonza, Switzerland) supplemented with 10% foetal calf serum (PAA, Australia) and 400 μg/ml Geneticin. 100000 cells/well are seeded in standard 96 W Microplates (MDS Analytical Technologies) and incubated at 37° C. in 5% CO2 for 24 hours. Cells are washed twice with 135 μl of cell key buffer (Hank's Balanced Salt Solution 1× (HBSS) (Invitrogen) supplemented with 10 mM HEPES pH 7.4 in presence of 1% DMSO). […] Results are expressed as the amplitude between the highest and the lowest signal produced (max-min). Basal and maximum activities are measured, respectively in absence or presence of PGD2 (EC80).

[3] = In vivo pharmacokinetic evaluation in mouse; details: female, C57BL/6, mouse, plasma, mice
Procedure: In order to study the pharmacokinetic (PK) profile of test compounds in vivo, Sprague Dawley male rats or C57BL/6 female mice were dosed intravenously or after oral gavage. For both species, test compounds were dosed in solution at 1 mg/kg for i.v. route (10% ethanol, 10% N,N-dimethylacetamide, 30% propylene glycol, 50% water, v/v) and in suspension at 5 mg/kg (0.5% carboxymethylcellulose suspension, containing 0.25% Tween 20 in water) for oral gavage. PK profile in rat was obtained from 3 animals per dosing route and mouse PK profile was determined from 3 animals for each time points. The volume of administration was 2 mL/kg for i.v. dosing in both species and either 5 mL/kg (rat) or 10 mL/kg (mouse) for oral gavage. Blood samples (100 μL/time point) were collected at 0.083 (5 min), 0.25, 0.5, 1, 4, 7 and 24 hours post-dose for i.v. dosing, and at 0.5, 1, 4, 7 and 24 h for oral dosing, into heparin-Li+ containing tubes. For rats, all blood samples were collected trough a catheter in the carotid artery (placed in the artery the day before the experiment), under light isoflurane anesthesia, and stored on ice until centrifugation and plasma isolation. For mouse, blood samples were collected from intracardiac puncture at sacrifice at each time point and processed as described above for the rat. Plasma samples were stored frozen until analysis (−20° C. to −70° C.). For bioanalysis, samples were processed by protein precipitation (acetonitrile, formic acid 0.1%, addition of 3 volumes) after addition of one internal standard and analysed using a sensitive and selective LC/MS/MS method. An aliquot of the resulting supernatant was subject to LC/MS/MS analysis using a reverse phase column (Waters Xterra, C8, (3.5 μm particle size, 2.1×50 mm) and a short gradient (1 min) from (Solvent A) 85% water, 15% acetonitrile and 0.1% formic acid to (Solvent B) 90% acetonitrile, 10% water and 0.1% formic acid followed by isocratic conditions of Solvent B for 3.5 min at 0.4 mL/min. Column effluent was monitored using a Sciex API 4000 triple quadrupole mass spectrometer with a Turbo V electrospray ion source. Unknown concentrations of test compounds were determined using a calibration curve ranging from 1 to 3000 ng/mL.

Compound	IC50 (CRTH2 (DP2)) [nM]	Emax (CRTH2 [1]) [%]	melting point [°C]	also measured
CCCCC(=O)N(Cc1ccc(OC(F)(F)F)c(Cl)c1)c1cc(F)cc(-c2nnn[nH]2)c1 [Example 54, N-[3-chloro-4-(trifluoromethoxy)benzyl]-N-[3-fluoro-5-(1H-tetrazol-5-yl)phenyl]pentanamide]	15	-12.6	137	–
CCCCC(=O)N(Cc1ccc(OC(F)(F)F)cc1)c1cc(Cl)cc(-c2nnn[nH]2)c1 [Example 40, N-[3-chloro-5-(1H-tetrazol-5-yl)phenyl]-N-[4-(trifluoromethoxy)benzyl]pentanamide]	25	-9.9	177 to 180	–
CCCCC(=O)N(Cc1cccn1S(=O)(=O)c1ccccc1)c1cc(-c2nnn[nH]2)ccc1F [Example 4, N-[2-fluoro-5-(1H-tetrazol-5-yl)phenyl]-N-{[1-(phenylsulfonyl)-1H-pyrrol-2-yl]methyl}pentanamide]	51	–	–	IC50 (CRTH2 [2]): 0.22 µM
CCC(=O)N(Cc1ccc(OC)cc1)c1cc(F)cc(-c2nnn[nH]2)c1 [Example 41, N-[3-fluoro-5-(1H-tetrazol-5-yl)phenyl]-N-(4-methoxybenzyl)propanamide]	9	–	158 to 160	–
CCC(=O)N(Cc1cccc(-c2ccccc2)c1)c1cccc(-c2nnn[nH]2)c1 [Example 59, N-(biphenyl-3-ylmethyl)-N-[3-(1H-tetrazol-5-yl)phenyl]propanamide]	230	–	91	–
C#Cc1cccc(CN(C(=O)CCCC)c2cc(-c3nnn[nH]3)ccc2F)c1 [Example 1, N-(3-ethynylbenzyl)-N-[2-fluoro-5-(1H-tetrazol-5-yl)phenyl]pentanamide]	12	–	–	IC50 (CRTH2 [2]): 0.096 µM; clearance ([3]; iv, i.v. 1 mg/Kg): 1.67 mL/min/kg; AUC ([3]; oral gavage 5 mg/Kg): 12200 ng·h/mL; bioavailability ([3]; po 5 mg/Kg vs iv 1 mg/Kg): 33%
CCCC(=O)N(Cc1ccc(OC(F)(F)F)cc1)c1cc(Cl)cc(-c2nnn[nH]2)c1 [Example 55, N-[3-chloro-5-(1H-tetrazol-5-yl)phenyl]-N-[4-(trifluoromethoxy)benzyl]butanamide]	16	-13.5	179	–

Compounds with a lower IC50 (CRTH2 (DP2)), results first:

IC50 (CRTH2 (DP2)) [nM]	Emax (CRTH2 [1]) [%]	melting point [°C]	Compound	also measured
2.6	-10.1	–	CS(=O)(=O)c1ccc(CN(C(=O)c2ccccc2)c2cc(F)cc(-c3nnn[nH]3)c2)cc1 [Example 108, N-[3-fluoro-5-(1H-tetrazol-5-yl)phenyl]-N-[4-(methylsulfonyl)benzyl]benzamide]	IC50 (CRTH2 [1]; in presence of a fixed concentration of PGD2 (EC80), read-out: IC50 ([35S]GTPγS, antagonist)): 22.4 nM; IC50 (CRTH2 [2]): 0.049 µM
3.7	–	–	CC(C)CC(=O)N(Cc1ccc(S(C)(=O)=O)cc1)c1cc(F)cc(-c2nnn[nH]2)c1 [Example 104, N-[3-fluoro-5-(1H-tetrazol-5-yl)phenyl]-3-methyl-N-[4-(methylsulfonyl)benzyl]butanamide]	EC50 (CRTH2 [2]): 0.0011 µM; Emax (CRTH2 [2]): 27%
6.2	–	–	CS(=O)(=O)c1ccc(CN(C(=O)C2CCCC2)c2cc(F)cc(-c3nnn[nH]3)c2)cc1 [Example 105, N-[3-fluoro-5-(1H-tetrazol-5-yl)phenyl]-N-[4-(methylsulfonyl)benzyl]cyclopentanecarboxamide]	EC50 (CRTH2 [2]): 0.0024 µM; Emax (CRTH2 [2]): 22%
7.4	–	146 to 151	COCCC(=O)N(Cc1ccc(OC(F)(F)F)cc1)c1cc(Cl)cc(-c2nnn[nH]2)c1 [Example 68, N-[3-chloro-5-(1H-tetrazol-5-yl)phenyl]-3-methoxy-N-[4-(trifluoromethoxy)benzyl]propanamide]	–
1	–	–	CS(=O)(=O)c1ccc(CN(C(=O)Cc2ccccc2)c2cc(F)cc(-c3nnn[nH]3)c2)cc1 [Example 109, N-[3-fluoro-5-(1H-tetrazol-5-yl)phenyl]-N-[4-(methylsulfonyl)benzyl]-2-phenylacetamide]	EC50 (CRTH2 [2]): 0.0012 µM; Emax (CRTH2 [2]): 32%
3.6	–	118 to 120	CCCCC(=O)N(Cc1cccc(OC)c1)c1cc(F)cc(-c2nnn[nH]2)c1 [Example 37, N-[3-fluoro-5-(1H-tetrazol-5-yl)phenyl]-N-(3-methoxybenzyl)pentanamide]	–
3.5	19	–	CCC(=O)N(Cc1ccc(S(C)(=O)=O)cc1)c1cc(F)cc(-c2nnn[nH]2)c1 [Example 78, N-[3-fluoro-5-(1H-tetrazol-5-yl)phenyl]-N-[4-(methylsulfonyl)benzyl]propanamide]	EC50 (CRTH2 [2]): 0.0011 µM; Emax (CRTH2 [2]): 42%; IC50 (CRTH2 [2]): 0.014 µM
3.6	–	122 to 125	CCCCC(=O)N(Cc1ccc(OC)cc1)c1cc(F)cc(-c2nnn[nH]2)c1 [Example 38, N-[3-fluoro-5-(1H-tetrazol-5-yl)phenyl]-N-(4-methoxybenzyl)pentanamide]	–
